Measurements from US4721730A, “Adsorbent for β2 -microglobulin and immunoglobulin L-chain” (Kanegafuchi Kagaku Kogyo Kabushiki Kaisha, priority 1986, dated 1988).

System: β2-m and L-chain
Test: adsorption ability of immobilized compounds / carriers for β2-m and L-chain
Assay type: binding
Details: compound immobilized onto a carrier; in words
Excerpt: In order to find out a compound which has an effect on adsorbing β2 -m and L-chain, compounds having various log P are immobilized onto a carrier.
As the result of an investigation using carriers having various molucular weights of the exclusion limit, it is shown that the preferable range of pore size indicated by molecular weight of the exclusion limit is from 1×10^4 to 6×10^5. […] Therefore, the molecular weight of the exclusion limit of the carrier empolyed in the present invention is preferably from 1×10^4 to 6×10^5,more preferably from 2×10^4 to 3×10^5.

## CCCCCCCCN [n-octylamine]
  adsorption ability of β2-m and L-chain: extraordinarily increased
